The values below come from patent US20250138031A1, “IN VITRO MEASUREMENT OF THE LYSIS OF A FIBRIN CLOT” (DIAGNOSTICA STAGO, priority 2021, published 2025).

Entries after “also recorded” stand apart in the source; their conditions may differ.

Data set [1] deals with lysis of the fibrin clot in hemophilia-A plasma. Briefly: Coagulation-Lysis test (turbidimetric, DOD t1 750 sec / t2 1400 sec) on hemophilia-A plasmas. The format is biochemical, human. The protocol:
Dynamic measurement of the formation and degradation of the fibrin clot is carried out on a set of samples. The test, called the “Coagulation-Lysis” test, is a turbidimetric, automated, encompassing test for measuring the formation and lysis of the fibrin clot. For the analysis, the invention takes advantage of only the “lysis” part of the fibrin clot formation and lysis curve. The test is performed by mixing the plasma sample, undiluted, with an intermediate reagent containing a very low concentration of tissue factor (TF), phospholipids (PPL), plasminogen activator (tPA), and activator of the intrinsic pathway, preferably factor XIa (FXIa). After incubating the mixture, the calcium reagent triggers the generation of thrombin and the formation of the fibrin clot which quickly begins to be degraded by the tPA (tissue plasminogen activator).
According to one embodiment, TF (tissue factor), PPL (phospholipids), FXIa, and tPA (tissue plasminogen activator) are mixed at the following concentrations: 0.5 pM, 4 μM, 100 PM and 0.13 μg/mL final test.
The undiluted plasma sample, preferably 200 μL, is mixed with the intermediate reagent, preferably 50 μL.
Next is a step of incubating the mixture at 37° C. then adding the calcium ion-based triggering reagent to the mixture (FIG. 1), preferably 50 μL in 102 mM final reagent (17 mM final test), to initiate the thrombin generation and fibrin clot formation (FIG. 1).
Then, the change in optical density is read (FIG. 1) dynamically (every 2 seconds) at a single wavelength between 350 and 800 nm, preferably at 540 nm and preferably for a duration of 1986 seconds (33 minutes).
In the context of this experimental section, the parameters or steps which were specifically used or carried out to obtain the presented results are as follows: • a. TF (tissue factor) and PPL (phospholipids) are mixed with an activator of the intrinsic pathway, FXIa, and tPA (tissue plasminogen activator), at the following concentrations: 0.5 pM, 4 μM, 100 pM, and 0.13 μg/mL final test. • b. The mixture is incubated at 37° C. then the calcium ion-based triggering reagent is added to the mixture, 50 μL in 102 mM final reagent (17 mM final test), to initiate formation of the fibrin clot. • c. The change in optical density is read dynamically (every 2 seconds) at a single wavelength, at 540 nm and for a duration of 1986 seconds (33 minutes). • d. The database is composed of all the deltas of the optical density (DOD) at the different measurement times and for each of the method parameters (Tmax; T09D—90% of the max DOD; TL—50% of the max DOD—max DOD is a measure of optical density). • e. […] This database is used as a training database which is trained on at least 70% of the overloaded samples selected randomly, and as a test database for the remaining overloaded samples (30%), then as a validation database for the patient samples.
The classification group is determined using the two DOD (delta optical density) parameters. For the turbidimetric method used, the times are defined within the ranges of [700-900] sec for time t1 and [1100-1400] sec for time t2. Preferably, time t1 was defined at 750 sec and time t2 was defined at 1400 sec. More precisely, the results shown in the Figures were obtained with t1=750 sec and t2=1400 sec. These parameters were selected in accordance with the method for the optimal choice or verification of these parameters, explained in this description. […] The range for time t2 was defined in combination with the results obtained at time t1.
As we did for the implementation of a viscoelastic method, we carried out turbidimetry tests where a hemophilia-A patient from each group is overloaded with different concentrations of therapeutic molecules of interest.
We wanted to test this type of molecule (below and FIG. 24) at concentrations of 0, 3, 15, and 30 μg/mL (Nougier et al. 2020) compared to the reference FVIII treatment (Advate®) at 0, 2, 20, and 100%. […]

The test system is the same in data set [2]. The experiment in a line: Coagulation-Lysis test in turbidimetry with intrinsic activators instead of FXIa. The format is biochemical, human. The note with it: all FVIII concentrations tested, 48 nM GEG, 290 nM silica, TF 0.5 pM. The protocol: The intrinsic activators in Stago reagents are ethylene glycol gallate at 23 mg/L (STA-Cephascreen) and silica at 20 g/L (STA-PTT analyzer).
As was done for the implementation of a viscoelastic method, turbidimetry tests were performed with a hemophilia-A patient from each group, overloaded with 0, 2, 20, 100% of Factor VIII (FVIII-Advate®). The coagulation reaction was initiated with ethylene glycol gallate (GEG) from 48 to 190 nM final test or with silica from 145 to 580 nM final test, without modifying the concentration of tissue factor which was kept at 0.5 pM final test for the two activators. These activators were added independently into the reagent under the same reference conditions as FXIa.
The aim is to determine the maximum difference in tolerance observed in parameters DOD t1, DOD t2, and TL, between FXIa and the intrinsic activators.

For data set [3] the following is noted: at 15 mg/kg; cited from earlier work.
Data set [4] has as its system inhibitor (antibodies directed against FIX). Briefly: Residual titer of FIX after neutralization by the inhibitor in hemophilia-B plasma. Format: biochemical, human. As to conditions: 40% Rixubis®, 30 minutes of incubation at 37° C. The text has this: For certain hemophilia patients, the presence of inhibitors justifies the use of emicizumab.

“FXIII: Factor XIII or Catridecacog (NovoThirteen® NovoNordisk), activated by thrombin, stabilizes the clot”: the “DOD t2 parameter” value in data set [1] (FXIII (NovoThirteen®) mainly in combination with FVIII, patients in the three groups) is “increases”. Further, in data set [1] (FXIII in combination with FVIII, patients from the three groups), the resistance to lysis entry is given as “increases the resistance to lysis”. Moreover, the “change of classification group” value in data set [1] (hemophilia-A patient in group 3, 20% FVIII and 170% FXIII:Ag) is “moves from group 3 to group 2”.
`O=C(OCCO)c1cc(O)c(O)c(O)c1` [GEG, ethylene glycol gallate]: the “maximum deviation for parameters DOD t1, DOD t2 and TL compared to the reference method with FXIa” value in data set [2] (group 1) is −9%; in data set [2] (group 2), “+3%”; in data set [2] (group 3) it was “+8%”.
Consider `NC[C@H]1CC[C@H](C(=O)O)CC1` [tranexamic acid], for which the “lysis kinetics of a fibrin clot” value in data set [1] (TXA (1 μg/mL, FIG. 7) in addition to maintenance therapy / missing factor FVIII, listed as TXA) is on record as “becomes slower; also recorded: reducing lysis”. Besides, the “classification group after treatment adjustment” value in data set [1] (group 3 patients (shortened lysis time), TXA added, FIG. 7) is listed as “move these patients into group 2”. Besides, in data set [1] (plasma concentration of 5 μg/mL of tranexamic acid in the sample), the “DOD (delta optical density) at time t2 compared with DOD at time t1” value was “identical”. In addition, in data set [3], the plasma concentration is 2 µg/mL.
For the molecule “Rixubis®: FIX molecule (Takeda) used as replacement molecule for hemophilia B”, the results for the “residual titer of FIX after neutralization” value in data set [4] (patient B14) and in data set [4] (patient B15) were 1% and 21%, respectively.

B1: emicizumab: commercial bispecific antibody mimicking FVIII by forming a complex with activated Factor IX and Factor X (antibody, chains of the INN, looked up, V domains shown)
VH: QVQLVQSGSELKKPGASVKVSCKASGYTFTDNNMDWVRQAPGQGLEWMGDINTRSGGSIYNEEFQDRVIMTVDKSTDTAYMELSSLRSEDTATYHCARRKSYGYYLDEWGEGTLVTVSS
VL: DIQMTQSPSSLSASVGDRVTITCKASRNIERQLAWYQQKPGQAPELLIYQASRKESGVPDRFSGSRYGTDFTLTISSLQPEDIATYYCQQYSDPPLTFGGGTKVEIK
VH2: QVQLVESGGGLVQPGGSLRLSCAASGFTFSYYDIQWVRQAPGKGLEWVSSISPSGQSTYYRREVKGRFTISRDNSKNTLYLQMNSLRAEDTAVYYCARRTGREYGGGWYFDYWGQGTLVTVSS
VL2: DIQMTQSPSSLSASVGDRVTITCKASRNIERQLAWYQQKPGQAPELLIYQASRKESGVPDRFSGSRYGTDFTLTISSLQPEDIATYYCQQYSDPPLTFGGGTKVEIK
Take B1: in data set [1] (at 3 μg/mL emicizumab), the “classification of patient in group 2 versus group 3” value is “overlap in classification”. Besides, the “change in the group of overloaded hemophiliacs” value in data set [1] (emicizumab overload 0, 3, 15, 30 μg/mL) is “No change”. The “change to DOD t1” value in data set [1] (emicizumab overload 0, 3, 15, 30 μg/mL, regardless of the patient groups) is “little change”. For the same molecule, the “DOD t2” value in data set [1] (groups 1 and 2, up to 15 μg/mL of emicizumab) was “increased”. Also, the “change in parameters DOD t1 and DOD t2” value in data set [1] (patient in group 3, emicizumab overload) is given as “little change in parameters”. Also, the resistance to lysis result in data set [1] (patients in groups 1 and 2, emicizumab overload) was “increasing the resistance to lysis”.
